Source: patent US20150292030A1, “METHODS OF CHARACTERIZING AND TREATING MOLECULAR SUBSET OF MUSCLE-INVASIVE BLADDER CANCER” (BOARD OF REGENTS, THE UNIVERSITY OF TEXAS SYSTEM, priority 2012, published 2015)

Experiments:
[1] = test system: muscle-invasive bladder cancer; test: Pathological response to neoadjuvant chemotherapy at cystectomy by cluster, discovery cohort; format: in vivo, human; conditions: cluster 2 (p53-like); FIG. 1D
Text: Tumors and clinical data were obtained from the MD Anderson genitourinary cancers research database. Fresh frozen tissues were obtained from the SPORE Tissue Core. Of note, all patients had previously signed informed consent allowing collection of their tissue and of their clinical data in the genitourinary research database. […] Patients were classified as muscle invasive for tumor growth into the muscularis propria; otherwise, they were classified as non-muscle invasive. Total RNA from human specimens were isolated using mirVana miRNA isolation kit (Ambion, Inc).
Presurgical (neoadjuvant) cisplatin-based chemotherapy is the current standard-of-care for high-risk muscle-invasive bladder cancer. […] To examine the relationship between the 3 molecular subsets and chemotherapy sensitivity, the inventors identified 18 patients within their discovery cohort that had received neoadjuvant chemotherapy and compared the pathological response rates within each cluster. Strikingly, whereas over half of the basal/cluster 1 (3/5) and luminal/cluster 3 (4/6) tumors responded to chemotherapy, none (0/7) of the p53-like cluster 2 tumors was downstaged in this initial cohort (Table 3). […] Gene expression profiling classified 3 of the tumors as basal, 4 as luminal, and 9 as p53-like (FIG. 7). […]

[2] = test system: human bladder cancer cell lines; test: Proliferation (MTT) assay of BGJ398 on a panel of 30 human bladder cancer cell lines; format: cell-based; conditions: lines SW780, UC1, RT112, RT4 and UC14; FIG. 6
Text: FIG. 6. Proliferation (MTT) assay testing effect of BGJ398 on human bladder cancer cell lines.
To test this possibility, the inventors examined the effects of the FGFR-selective inhibitor BGJ398 on proliferation in the inventor's panel of 30 human bladder cancer cell lines using MTT assays.

SMILES: N.N.[Cl][Pt][Cl] [cisplatin]
- observed cisplatin resistance [1]: resistance

SMILES: CCN1CCN(c2ccc(Nc3cc(N(C)C(=O)Nc4c(Cl)c(OC)cc(OC)c4Cl)ncn3)cc2)CC1 [BGJ398]
- drug sensitivity of proliferation (MTT) [2]: most drug-sensitive
